From patent US20250290057A1, “LYTIC AGENT FOR ENTEROCOCCUS FAECALIS” (priority 2022, published 2025)
≈ marks a conversion by molar mass, not a printed value. Like-named read-outs stand apart in the source and are kept apart here.

Tests used:
[1] = tested on: E. faecalis isolates; experiment: Minimal inhibitory concentration of antibacterial agents, "Eiken" DP42 dry plate; format: cell-based, Enterococcus faecalis; details: for MIC: Enterococcus faecalis
Description: (§1) The sensitivity to an antibacterial agent for each of the above-described 30 Enterococcus bacterial strains was invenstigated. Specifically, the bacterial strains prepared in 1 McFarland standard with physiological saline were diluted 500-fold with a BHI culture medium, and then aerobically cultured in solid-phase wells of an “Eiken” DP42 dry plate (Eiken Chemical Co., Ltd., Tokyo, Japan) for 24 hours.
(§2) The minimal inhibitory concentration of any one of the antibacterial agents, i.e., daptomycin (DAP), vancomycin (VCM), teicoplanin (TEIC), and linezolid (LZD), was determined in accordance with the instruction of the product. […] The results obtained by testing resistance to the antibacterial agents of the E. faecalis strains (11 strains) are shown in Table 1 below.

[2] = tested on: E. faecium isolates; experiment: as above; format: cell-based, Enterococcus faecium; details: all E. faecium (19 strains)
Description: as §1, §2

[3] = tested on: E. faecalis strains JCM5803, JCM8902; experiment: Vancomycin resistance evaluation (method of Example 2 (2)); format: cell-based; design: key: resistant: +; nonresistant: −
Description: as §1, §2
(§3) The hemolytic activity of each of the bacterial strains was measured with a hemolysis assay using a Nissui Plate Horse Blood Agar medium. The cytolysin-related gene was detected with PCR. The vancomycin resistance was evaluated using the method described in (2) in Example 2. The vanA gene and the vanB gene that are vancomycin-resistant genes were detected with PCR. Furthermore, each bacterial strain was aerobically cultured in a BHI culture medium, and centrifuged at 300×g for 5 minutes for collection. The cell pellets were washed, and resuspended in a HiTrap buffer. The phage-derived endolysin was added at a final concentration of 50 μg/mL to the cell resuspension liquid. The resulting suspension was incubated at 37° C., and the lytic activity was measured, using the presence or absence of a bacterial lump as an index.

[4] = tested on: E. faecium strain JCM5804; experiment: as above; format: cell-based; design: key: resistant: +; nonresistant: −
Description: as §1, §2, §3

In the case of `CN[C@H](CC(C)C)C(=O)N[C@H]1C(=O)N[C@@H](CC(N)=O)C(=O)N[C@H]2C(=O)N[C@H]3C(=O)N[C@H](C(=O)N[C@H](C(=O)O)c4cc(O)cc(O)c4-c4cc3ccc4O)[C@H](O)c3ccc(c(Cl)c3)Oc3cc2cc(c3O[C@@H]2O[C@H](CO)[C@@H](O)[C@H](O)[C@H]2O[C@H]2C[C@](C)(N)[C@H](O)[C@H](C)O2)Oc2ccc(cc2Cl)[C@H]1O` [vancomycin], the MIC ([1]; read-out: Minimal inhibitory concentration, E. faecalis strain OCU009_35_4) is reported as 2 µg/mL (≈ 1.38 µM), the MIC ([1]; read-out: Minimal inhibitory concentration, E. faecalis strain OCU009_35_10) is reported as 4 µg/mL (≈ 2.76 µM) and the MIC ([1]; read-out: Minimal inhibitory concentration, E. faecalis strain OCU015_56_6) is reported as 2 µg/mL (≈ 1.38 µM). The MIC ([1]; read-out: Minimal inhibitory concentration, E. faecalis strain OCU015_56_7) was 2 µg/mL (≈ 1.38 µM), the MIC ([1]; read-out: Minimal inhibitory concentration, E. faecalis strain OCU031_7_1) was 4 µg/mL (≈ 2.76 µM) and the MIC ([1]; read-out: Minimal inhibitory concentration, E. faecalis strain OCU031_7_9) was 2 µg/mL (≈ 1.38 µM). The MIC ([1]; read-out: Minimal inhibitory concentration, E. faecalis strain OCU031_14_5) was 4 µg/mL (≈ 2.76 µM), the MIC ([1]; read-out: Minimal inhibitory concentration, E. faecalis strain OCU031_14_8) was 2 µg/mL (≈ 1.38 µM) and the MIC ([1]; read-out: Minimal inhibitory concentration, E. faecalis strain OCU031_pre_6) was 2 µg/mL (≈ 1.38 µM). The MIC ([1]; read-out: Minimal inhibitory concentration, E. faecalis strain OCU031_pre_7) was 2 µg/mL (≈ 1.38 µM), the MIC ([1]; read-out: Minimal inhibitory concentration, E. faecalis strain OCU031_pre_10) was 2 µg/mL (≈ 1.38 µM) and the “Sensitivity of strains to antibacterial agent” value ([1]; all E. faecalis strains (11 strains)) was “exhibited sensitivity”. The “Sensitivity of strains to antibacterial agent” value [2] was “exhibited sensitivity”, the Vancomycin-resistance ([3]; strain JCM5803) was “−” and the Vancomycin-resistance ([3]; strain JCM8902) was “+”. For the same compound, the Vancomycin-resistance [4] was “−”.
